{"source": "patent US10857228B2", "about": "“Adjuvant for vaccines, vaccine, and immunity induction method” (The University of Tokyo, priority 2015, dated 2020)", "key": {"[1]": {"test_system": "CD57BL/6 mice", "test": "IgA induction by spleen cDCs stimulated with OVA, CpG ODN and GM-CSF, intraperitoneally administered to mice", "type": "in vivo", "conditions": "spleen cDCs stimulated 24 hours with OVA 100 μg/ml and adjuvant, given i.p. Day 0 and Day 14; oral OVA Day 21 to 25; ELISA Day 32", "method": "Spleen cDCs were stimulated for 24 hours using ovalbumin (OVA; 100 μg/ml) as an antigen and CpG ODN 1668 (1 μg/ml) only or the combination of CpG ODN and GM-CSF (10 ng/ml) as an adjuvant.\nHere, the fractioning of murine small intestine mucosa lamina propria cells with the dendritic cell marker CD11c and the macrophage marker CD11b produces the 4 groups: R1 (dendritic cells) (CD11c high CD11b low), R2 (dendritic cells) (CD11c high CD11b high), R3 (macrophages) (CD11c int CD11b int), R4 (acidophiles) (CD11c int CD11b high). The R2 dendritic cells specifically express Raldh2 and induce the Th17 response and the IgA production (Non-Patent Literature 1). Therefore, the R2 dendritic cells were stimulated with OVA (100 μg/ml) and CpG ODN 1668 (1 μg/ml) as positive control. Spleen cDCs were stimulated with OVA (100 μg/ml) and CpG ODN 1668 (1 μg/ml) with or without GM-CSF (10 ng/ml).\nOn Day 0 and Day 14 after the stimulation, dendritic cells (each 5×10^4 cells) (or PBS) which took up the antigen were intraperitoneally administered into CD57BL/6 mice. On Day 21 to Day 25, 1 mg/mouse of OVA was orally administered daily and, on Day 32, total of antigen-specific IpG in serum and antigen-specific IgA in feces were measured by ELISA."}, "[2]": {"test_system": "pulmonary mucosa lamina propria cells", "test": "Cytokine production of pulmonary mucosa lamina propria cells after intranasal booster", "type": "in vivo, mice", "conditions": "7 days after intranasal OVA, cultured 4 days with OVA 100 μg/ml", "method": "IFA, IFA+OVA+CpG ODN, IFA+OVA+curdlan, and IFA+OVA+CpG ODN+curdlan were administered to mice by intramuscular injection, respectively. On Day 35, 1 μg/mouse of OVA was administered by intranasal administration to perform booster immunization, and, 7 days later antigen-specific total IgG in the serum and IgA in the bronchoalveolar lavage fluid were measured by ELISA.\nIn the experiment of 9, 7 days after the intranasal administration of OVA, pulmonary mucosa lamina propria cells were extracted from the mice and cultured in the presence of the antigen (OVA 100 μg/ml) for 4 days and IFN-γ, IL-4, and IL-17 production was measured by ELISA."}, "[3]": {"test_system": "Dectin-1", "test": "Expression of Dectin-1 in spleen-derived dendritic cells with CpG ODN stimulation", "type": "cell-based", "conditions": "spleen-derived dendritic cells stimulated with CpG ODN", "method": "Next, the expression of Dectin-1, which is a receptor that recognizes β-1,3-glucan, in dendritic cells was measured. The summary and the result of the experiment are illustrated in FIG. 12. As illustrated in the left panel in the figure, it was confirmed that, in spleen-derived dendritic cells, the expression of Dectin-1 is not high, but the expression of Dectin-1 increases more than 3 times by stimulating the cells with CpG ODN. Dectin-1 is known to induce the Th17 response. These indicate the mechanism of the present invention in which the addition of both of CpG ODN and β-1,3-glucan to the adjuvant makes dendritic cells easy to receive the stimulation with β-1,3-glucan and induces the Th17 response."}, "[4]": {"test_system": "Raldh2", "test": "Induction of Raldh2 mRNA expression in spleen cDCs (RT-PCR)", "type": "cell-based", "conditions": "spleen cDCs stimulated 24 hours", "method": "Next, zymosan (component of yeast cell wall of Saccharomyces cerevisiae; 25 ng/ml) and curdlan ((β-1,3-glucan derived from Agrobacterium spp., Alcaligenes spp.; 25 ng/ml) were used as glucan-based compound. Spleen cDCs were stimulated with these substances for 24 hours and, after collecting RNA, the expression of Raldh2 mRNA was measured by RT-PCR."}}, "data": [{"molecule": "CpG ODN 1668", "values": [{"measurement": "antigen-specific IgA in feces", "setting": "[1]", "value": "induced little production of IgA"}, {"measurement": "IFN-γ production", "setting": "[2]", "value": "induced"}, {"measurement": "increase of expression of Dectin-1", "setting": "[3]", "value": "more than 3 times"}]}, {"molecule": "curdlan", "values": [{"measurement": "expression of Raldh2 mRNA", "setting": "[4]", "value": "induced the expression of Raldh2"}, {"measurement": "IFN-γ production", "setting": "[2]", "value": "induced"}]}, {"molecule": "granulocyte monocyte colony stimulating factor (protein, UniProt P01587 18-141, looked up, inducer of expression of Raldh2; added with CpG ODN to stimulate spleen cDCs) Granulocyte-macrophage …: APTRSPITVTRPWKHVEAIKEALNLLDDMPVTLNEEVEVVSNEFSFKKLTCVQTRLKIFEQGLRGNFTKLKGALNMTASYYQTYCPPTPETDCETQVTTYADFIDSLKTFLTDIPFECKKPGQK", "values": [{"measurement": "antigen-specific IgA in feces", "setting": "[1]", "value": "induced IgA production more than the R2 dendritic cells"}, {"measurement": "expression of Raldh2 mRNA", "setting": "[4]", "value": "induced the expression of Raldh2"}]}]}
